Patent US20040063662A1, “Selenophene anti-tumor agents” (priority 1996, published 2004)

Columns and labels:
K-562 = assay: NCI human tumor cell panel: K-562 (Leukemia); type: cell-based
MOLT-4 = assay: NCI human tumor cell panel: MOLT-4 (Leukemia); type: cell-based
SR = assay: NCI human tumor cell panel: SR (Leukemia); type: cell-based
A549/ATCC = assay: NCI human tumor cell panel: A549/ATCC (Non-Small Cell Lung Cancer); type: cell-based
EKVX = assay: NCI human tumor cell panel: EKVX (Non-Small Cell Lung Cancer); type: cell-based
HOP-62 = assay: NCI human tumor cell panel: HOP-62 (Non-Small Cell Lung Cancer); type: cell-based
NCI-H23 = assay: NCI human tumor cell panel: NCI-H23 (Non-Small Cell Lung Cancer); type: cell-based; conditions: NCI-H23, read-out: Log10 GI50 (converted)
NCI-H460 = assay: NCI human tumor cell panel: NCI-H460 (Non-Small Cell Lung Cancer); type: cell-based
HCT-116 = assay: NCI human tumor cell panel: HCT-116 (Colon Cancer); type: cell-based
HCT-15 = assay: NCI human tumor cell panel: HCT-15 (Colon Cancer); type: cell-based
HT29 = assay: NCI human tumor cell panel: HT29 (Colon Cancer); type: cell-based
KM12 = assay: NCI human tumor cell panel: KM12 (Colon Cancer); type: cell-based
SW-620 = assay: NCI human tumor cell panel: SW-620 (Colon Cancer); type: cell-based
SF-295 = assay: NCI human tumor cell panel: SF-295 (CNS Cancer); type: cell-based
SNB-75 = assay: NCI human tumor cell panel: SNB-75 (CNS Cancer); type: cell-based
LOX IMVI = assay: NCI human tumor cell panel: LOX IMVI (Melanoma); type: cell-based
MALME-3M = assay: NCI human tumor cell panel: MALME-3M (Melanoma); type: cell-based; conditions: Malme-3M
UACC-257 = assay: NCI human tumor cell panel: UACC-257 (Melanoma); type: cell-based
UACC-62 = assay: NCI human tumor cell panel: UACC-62 (Melanoma); type: cell-based
IGROV1 = assay: NCI human tumor cell panel: IGROV1 (Ovarian Cancer); type: cell-based
OVCAR-4 = assay: NCI human tumor cell panel: OVCAR-4 (Ovarian Cancer); type: cell-based
OVCAR-5 = assay: NCI human tumor cell panel: OVCAR-5 (Ovarian Cancer); type: cell-based
OVCAR-8 = assay: NCI human tumor cell panel: OVCAR-8 (Ovarian Cancer); type: cell-based
786-0 = assay: NCI human tumor cell panel: 786-0 (Renal Cancer); type: cell-based
A498 = assay: NCI human tumor cell panel: A498 (Renal Cancer); type: cell-based
TK-10 = assay: NCI human tumor cell panel: TK-10 (Renal Cancer); type: cell-based
PC-3 = assay: NCI human tumor cell panel: PC-3 (Prostate Cancer); type: cell-based
MCF7/ADR-RES = assay: NCI human tumor cell panel: MCF7/ADR-RES (Breast Cancer); type: cell-based
HOP-92 = assay: NCI human tumor cell panel: HOP-92 (Non-Small Cell Lung Cancer)
[1] = read-out: Log10 GI50 (converted)
[2] = read-out: Log10 TGI (converted)

For `OCc1ccc(-c2ccc(-c3ccc[se]3)[se]2)[se]1` [compound 675246], the GI50 (K-562; K562, K-562, read-out: Log10 GI50 (converted)) was 0.372 µM, the IC (TGI) (K-562; K562, K-562, read-out: Log10 TGI (converted)) was 7.59 µM and the GI50 (MOLT-4; MOLT-4, read-out: Log10 GI50 (converted)) was 3.24 µM. For the same compound, the IC (TGI) (MOLT-4; MOLT-4, read-out: Log10 TGI (converted)) was 12 µM, the GI50 (SR; [1]) was 6.61 µM and the IC (TGI) (SR; [2]) was > 100 µM. The GI50 (A549/ATCC; [1]) was 10.5 µM, the IC (TGI) (A549/ATCC; [2]) was 22.4 µM and the GI50 (EKVX; [1]) was 5.5 µM. It also gave an IC (TGI) (EKVX; [2]) of 17.4 µM, a GI50 (HOP-62; HOP-62, read-out: Log10 GI50 (converted)) of 7.24 µM and an IC (TGI) (HOP-62; HOP-62, read-out: Log10 TGI (converted)) of 20.4 µM. For the same compound, the GI50 (NCI-H23) was 13.2 µM, the GI50 (NCI-H460; NCI-H460, read-out: Log10 GI50 (converted)) was 0.324 µM and the IC (TGI) (NCI-H460; NCI-H460, read-out: Log10 TGI (converted)) was 3.63 µM. It also gave a GI50 (HCT-116; HCT-116, read-out: Log10 GI50 (converted)) of 0.0646 µM, an IC (TGI) (HCT-116; HCT-116, read-out: Log10 TGI (converted)) of 10.7 µM and a GI50 (HCT-15; HCT-15, read-out: Log10 GI50 (converted)) of 4.27 µM. For the same compound, the IC (TGI) (HCT-15; HCT-15, read-out: Log10 TGI (converted)) was 17.8 µM, the GI50 (HT29; HT-29, HT29, read-out: Log10 GI50 (converted)) was 0.851 µM and the IC (TGI) (HT29; HT-29, HT29, read-out: Log10 TGI (converted)) was 10.7 µM. It also gave a GI50 (KM12; KM12, read-out: Log10 GI50 (converted)) of 4.17 µM, an IC (TGI) (KM12; KM12, read-out: Log10 TGI (converted)) of 17 µM and a GI50 (SW-620; SW-620, read-out: Log10 GI50 (converted)) of 0.417 µM. For the same compound, the IC (TGI) (SW-620; SW-620, read-out: Log10 TGI (converted)) was 10.2 µM, the GI50 (SF-295; SF-295, read-out: Log10 GI50 (converted)) was 10.7 µM and the IC (TGI) (SF-295; SF-295, read-out: Log10 TGI (converted)) was 27.5 µM. For the same compound, the GI50 (SNB-75; SNB-75, read-out: Log10 GI50 (converted)) was 3.89 µM, the IC (TGI) (SNB-75; SNB-75, read-out: Log10 TGI (converted)) was > 100 µM and the GI50 (LOX IMVI; [1]) was 3.63 µM. It also gave an IC (TGI) (LOX IMVI; [2]) of 9.77 µM, a GI50 (MALME-3M; [1]) of 6.17 µM and an IC (TGI) (MALME-3M; [2]) of 19.5 µM. It also gave a GI50 (UACC-257; UACC-257, read-out: Log10 GI50 (converted)) of 0.0501 µM, an IC (TGI) (UACC-257; UACC-257, read-out: Log10 TGI (converted)) of 0.224 µM and a GI50 (UACC-62; UACC-62, read-out: Log10 GI50 (converted)) of 0.0102 µM. The IC (TGI) (UACC-62; UACC-62, read-out: Log10 TGI (converted)) was 11.2 µM, the GI50 (IGROV1; IGROV-1, IGROV1, read-out: Log10 GI50 (converted)) was 0.0537 µM and the IC (TGI) (IGROV1; IGROV-1, IGROV1, read-out: Log10 TGI (converted)) was 2.24 µM. The GI50 (OVCAR-4; OVCAR-4, read-out: Log10 GI50 (converted)) was 0.575 µM, the IC (TGI) (OVCAR-4; OVCAR-4, read-out: Log10 TGI (converted)) was 12.3 µM and the GI50 (OVCAR-5; OVCAR-5, read-out: Log10 GI50 (converted)) was 0.182 µM. It also gave an IC (TGI) (OVCAR-5; OVCAR-5, read-out: Log10 TGI (converted)) of 25.1 µM, a GI50 (OVCAR-8; OVCAR-8, read-out: Log10 GI50 (converted)) of 5.01 µM and an IC (TGI) (OVCAR-8; OVCAR-8, read-out: Log10 TGI (converted)) of 33.1 µM. For the same compound, the GI50 (786-0; 786-0, read-out: Log10 GI50 (converted)) was 2.19 µM, the IC (TGI) (786-0; 786-0, read-out: Log10 TGI (converted)) was 5.25 µM and the GI50 (A498; A498, read-out: Log10 GI50 (converted)) was 0.0389 µM. It also gave an IC (TGI) (A498; A498, read-out: Log10 TGI (converted)) of 0.166 µM, a GI50 (TK-10; TK-10, read-out: Log10 GI50 (converted)) of 1.91 µM and an IC (TGI) (TK-10; TK-10, read-out: Log10 TGI (converted)) of 10.7 µM. It also gave a GI50 (PC-3; PC-3, read-out: Log10 GI50 (converted)) of 3.8 µM, an IC (TGI) (PC-3; PC-3, read-out: Log10 TGI (converted)) of 13.2 µM and a GI50 (MCF7/ADR-RES; [1]) of 5.13 µM. For the same compound, the IC (TGI) (MCF7/ADR-RES; [2]) was 46.8 µM, the GI50 (HOP-92; HOP-92, read-out: Log10 GI50 (converted)) was 2.63 µM and the IC (TGI) (HOP-92; HOP-92, read-out: Log10 TGI) was 11.2 µM.
